molecular target: Serine/threonine-protein kinase PLK1 (Homo sapiens, UniProt P53350); experiment: potency against Plk1 PBD phosphopeptide binding – biochemical, fluorescence polarization, dose response (AID 877)
Sequence (P53350 whole entry): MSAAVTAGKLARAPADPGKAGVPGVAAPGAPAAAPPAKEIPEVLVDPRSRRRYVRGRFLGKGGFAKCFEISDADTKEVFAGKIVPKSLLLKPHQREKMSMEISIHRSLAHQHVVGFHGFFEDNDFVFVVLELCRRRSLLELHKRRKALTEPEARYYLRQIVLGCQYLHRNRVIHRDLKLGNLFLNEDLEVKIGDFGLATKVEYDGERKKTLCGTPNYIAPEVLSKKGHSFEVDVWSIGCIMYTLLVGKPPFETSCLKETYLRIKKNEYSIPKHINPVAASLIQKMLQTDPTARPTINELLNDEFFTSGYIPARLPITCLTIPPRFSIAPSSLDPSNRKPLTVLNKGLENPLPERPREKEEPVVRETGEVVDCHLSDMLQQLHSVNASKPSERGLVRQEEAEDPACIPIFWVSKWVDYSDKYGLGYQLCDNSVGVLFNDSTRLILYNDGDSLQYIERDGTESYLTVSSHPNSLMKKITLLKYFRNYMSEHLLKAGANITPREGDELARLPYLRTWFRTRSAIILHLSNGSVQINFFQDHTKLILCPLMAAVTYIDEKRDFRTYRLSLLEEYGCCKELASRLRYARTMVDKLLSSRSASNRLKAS

SMILES	IC50
CCC(=O)Nc1ccccc1C(=O)NC1CCCCC1 [MLS000538265]	> 50 µM
O=C(NC1(C(F)(F)F)NC(=O)N(CC2CCCCC2)C1=O)c1ccco1 (stereo not given) [MLS000040678]	> 50 µM
CCn1c(SCC(N)=O)nnc1-c1ccc(S(=O)(=O)N2CCN(C)CC2)cc1 [2-[[4-ethyl-5-[4-(4-methylpiperazin-1-yl)sulfonylphenyl]-1,2,4-triazol-3-yl]sulfanyl]acetamide]	> 50 µM
Cc1nc2c(=O)n(C)c(=O)nc-2n(C)n1 [1,3,6-Trimethyl-1H-pyrimido[5,4-e][1,2,4]triazine-5,7-dione]	14.6 µM
CC(C)(C)NC(=O)CC(CC(=O)O)c1ccccc1 (stereo not given) [5-(tert-butylamino)-5-keto-3-phenyl-valeric acid]	> 50 µM
Nc1cc2nsnc2cc1Br [(6-bromopiazthiol-5-yl)amine]	40.8 µM
Nc1ccc2c(c1)C(=O)C(=O)c1ccccc1-2 [2-Amino-phenanthrene-9,10-dione]	5.9 µM
CCC(=O)Nc1ccc(-c2nnc(SCC(=O)Nc3nccs3)n2C)cc1 [MLS000076456]	> 50 µM
CCCSc1nc(N2CCOCC2)c2c(c1C#N)CCCC2 [1-(4-morpholinyl)-3-(propylthio)-5,6,7,8-tetrahydroisoquinoline-4-carbonitrile]	> 50 µM
CC(=O)N1CCc2cc(Br)cc(S(=O)(=O)NCc3ccccn3)c21 [1-acetyl-5-bromo-N-(2-pyridinylmethyl)-2,3-dihydroindole-7-sulfonamide]	> 50 µM
Cc1cccc(-n2c(CCn3nc(C)c([N+](=O)[O-])c3C)n[nH]c2=S)c1 [3-(2-{4-nitro-3,5-dimethyl-1H-pyrazol-1-yl}ethyl)-4-(3-methylphenyl)-5-sulfanyl-4H-1,2,4-triazole]	> 50 µM
CC(C)N(Cc1cc2ccccc2[nH]c1=O)C(=O)c1cccnc1 [N-[(2-oxo-1H-quinolin-3-yl)methyl]-N-propan-2-ylpyridine-3-carboxamide]	> 50 µM
O=C(NC1(O)C(=O)c2ccccc2C1=O)c1ccccc1 [N-(2-hydroxy-1,3-dioxo-2-indenyl)benzamide]	> 50 µM
Cc1[nH]n2c(=O)cc(-c3ccc([N+](=O)[O-])cc3)nc2c1-c1ccccc1 [MLS000547439]	> 50 µM
NC(=O)C1(N2CCCCC2)CCN(C(=O)NC2CCCCC2)CC1 [1-N-cyclohexyl-4-piperidin-1-ylpiperidine-1,4-dicarboxamide]	> 50 µM
CCC(C)c1ccc(NC(=O)C2CC2)cc1 (stereo not given) [MLS000110184]	> 50 µM
COc1cc(S(=O)(=O)N2CCCCCC2)ccc1-n1cnnn1 [1-(3-Methoxy-4-tetrazol-1-yl-benzenesulfonyl)-azepane]	> 50 µM
Cc1ccc2c(c1)CC1(CN2C)C(=O)NC(=O)N(c2ccccc2C)C1=O (stereo not given) [1',6'-dimethyl-1-(2-methylphenyl)spiro[1,3-diazinane-5,3'-2,4-dihydroquinoline]-2,4,6-trione]	> 50 µM

SMILES	IC50
CCOc1ccccc1N1CCN(C2=C(NS(=O)(=O)c3cccs3)C(=O)c3ccccc3C2=O)CC1 [MLS000551587]	> 50 µM
COc1ccc(S(=O)(=O)N(C)CC(=O)Nc2ccccc2C(F)(F)F)cc1 [2-[(4-methoxyphenyl)sulfonyl-methyl-amino]-N-[2-(trifluoromethyl)phenyl]acetamide]	> 50 µM
COc1ccc2c3c(cccc13)NN=C2C [6-Methoxy-3-methyl-1H-benzo[de]cinnoline]	> 50 µM
CN(C)c1ccc(C(=O)Nc2nc3c(s2)CCCC3)cc1 [4-(dimethylamino)-N-(4,5,6,7-tetrahydro-1,3-benzothiazol-2-yl)benzamide]	> 50 µM
Cc1ccc(-n2c(O)c(C=NCCN3CCOCC3)c(=O)[nH]c2=O)cc1	> 50 µM
COC(=O)CCc1c(C)[nH]c(=S)[nH]c1=O [3-(6-methyl-4-oxo-2-sulfanylidene-1H-pyrimidin-5-yl)propanoic acid methyl ester]	> 50 µM
CCC(=O)N1CCN(c2ccc(NC(=O)c3ccc4c(c3)OCO4)cc2)CC1 [Benzo[1,3]dioxole-5-carboxylic acid [4-(4-propionyl-piperazin-1-yl)-phenyl]-amide]	> 50 µM
CCN1C(=O)/C(=C/c2nc3ccccc3c(=O)n2-c2ccccc2)c2ccccc21 [2-[(1-ethyl-2-oxo-1,2-dihydro-3H-indol-3-ylidene)methyl]-3-phenyl-4(3H)-quinazolinone]	> 50 µM
COc1ccc(CC2NCCC3(O)CCCCC23)cc1 (stereo not given) [1-(4-Methoxy-benzyl)-octahydro-isoquinolin-4a-ol]	> 50 µM
C=CCSc1nccc(-c2cc(Cl)sc2Cl)n1 [2-(allylsulfanyl)-4-(2,5-dichloro-3-thienyl)pyrimidine]	> 50 µM
O=C(COc1ccccc1)Nc1ccc(S(=O)(=O)N2CCOCC2)cc1 [MLS000108227]	> 50 µM
CS(=O)(=O)N1CCN(C/C=C/c2ccccc2)CC1 [1-(methylsulfonyl)-4-(3-phenyl-2-propen-1-yl)piperazine]	> 50 µM
COc1cccc(OC)c1C(=O)N1CCN(c2ccccn2)CC1 [(2,6-dimethoxyphenyl)-(4-pyridin-2-ylpiperazin-1-yl)methanone]	> 50 µM
Cc1cc(C)n(-c2nnc3n2N=C(c2ccccc2)CS3)n1 [3-(3,5-dimethyl-1-pyrazolyl)-6-phenyl-7H-[1,2,4]triazolo[3,4-b][1,3,4]thiadiazine]	> 50 µM
CC(=O)N(N=C1Sc2ccccc2C1=O)c1ccccc1C [N-(2-methylphenyl)-N-[(3-oxo-1-benzothiophen-2-ylidene)amino]acetamide]	37.3 µM
Cn1cc(SCC(=O)Nc2ccc3c(c2)OCCO3)c2ccccc21 [MLS000529783]	> 50 µM
CCCc1nc2sc3c(c2c(=O)n1NC(=O)CCC(=O)O)CCCC3 [4-keto-4-[(4-keto-2-propyl-5,6,7,8-tetrahydrobenzothiopheno[2,3-d]pyrimidin-3-yl)amino]butyric acid]	> 50 µM

From BindingDB's records for doi:10.7270/Q2T72FVT (University of Pittsburgh, 2007)
